pEC50: −log10 of the molar value. Where two headings read alike, the source gives them in different places.
Columns and labels:
[1] = test system: SH-SY5Y M-currents (KCNQ2, KCNQ3 and KCNQ5); assay: SH-SY5Y native cell line FLIPR assay (voltage-sensitive dye DiBAC); type: cell-based, mouse neuroblastoma, rat glioma hybrid cell line; details: SH-SY5Y native cell line, read-out: SH-SY5Y EC50
How it was run: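 Response is peak DiBAC fluorescence change, normalised to the maximum from a positive control agent, sampled every 30 s over 25 min. Before compound addition, SH-SY5Y cells differentiated with PGE1 plus isomethylbutylxanthine were dye-loaded for 1 h in EBSS with […] DiBAC.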

[2] = test system: electroshock seizure, Male Wistar rats; assay: In vivo rat assay for anti-convulsant activity (rat MES, electroshock seizure); details: for Rat MES activity: single dose screening, oral, typically 10 mg/kg, animals protected from hind limb extension; for ED50: Rattus norvegicus, po, rat MES dose-response
Procedure: Male Wistar rats were housed 4 per cage on a regular light/dark cycle (lights on 0600-1800) for one week prior to anti-convulsant testing. The apparatus used to induce electroshock seizure was obtained from Walhquist Instrument Co., Salt Lake City, Utah. The shock level was set at 150 mA and the duration at 0.2 seconds. A drop of 1% proparacaine solution was placed in each eye of a rat, the electrodes were placed over the eyes, and the shock was administered. Latency to hind limb extension was measured to the nearest 0.1 second.
The KCNQ opener was homogenized in either 0.5% carboxymethylcellulose in water or 0.5% methylcellulose in water) and administered orally through a steel 18-gauge rat gavage tube in a volume of 2 mL/kg of body weight. In the single dose screening assay, latency to seizure for the vehicle group and the KCNQ opener group were compared using t-test. Typically a dose of 10 mg/kg of the opener is used. However, openers can be run n a dose-response experiment where doses of 1, 3, 10 and 30 mg/Kg are used.
In the single dose screening assay, latency to seizure for the vehicle and the 10 mg/kg groups were compared using t-test. Latencies to seizure in the dose response studies were submitted to analysis of variance and all dose groups were compared to vehicle using Dunnett's method (JMP© ver 5.1, SAS). In all cases an effect was considered significant if p≦0.05.

CC(C)(C)Cc1c(NC(=O)Cc2ccccc2)nc2ccc(C(F)(F)F)cn12 [Compound 20, N-(3-neopentyl-6-(trifluoromethyl)imidazo[1,2-a]pyridin-2-yl)-2-phenylacetamide]
pEC50 ([1]; FLIPR assay, Table 1): > 6.30 | Rat MES activity [2]: + (+ 2-3 animals protected)

CC(CC(=O)Nc1nc2ccc(C(F)(F)F)cn2c1CC(C)(C)C)C(F)(F)F (stereo not shown) [Compound 23, 4,4,4-trifluoro-3-methyl-N-(3-neopentyl-6-(trifluoromethyl)imidazoyl)butanamide]
pEC50 ([1]; FLIPR assay, Table 1): > 6.30 | Rat MES activity [2]: + (+ 2-3 animals protected)

CC(C)(C)CCC(=O)Nc1nc2ccc(C(F)(F)F)cn2c1CC(C)(C)C [Compound 24, 4,4-dimethyl-N-(3-neopentyl-6-(trifluoromethyl)imidazo[1,2-a]pyridin-2-yl)pentanamide]
pEC50 ([1]; FLIPR assay, Table 1): > 6.30 | Rat MES activity [2]: + (+ 2-3 animals protected)

CC(C)(C)CC(=O)Nc1nc2ccc(C(F)(F)F)cn2c1CC1CCCCC1 [Compound 32, N-(3-(cyclohexylmethyl)-6-(trifluoromethyl)imidazo[1,2-a]pyridin-2-yl)-3,3-dimethylbutanamide]
pEC50 ([1]; FLIPR assay, Table 1): > 6.30 | Rat MES activity [2]: + (+ 2-3 animals protected)

O=C(Cc1ccccc1)Nc1nc2ccc(C(F)(F)F)cn2c1C1CCCCC1 [Compound 38, N-(3-cyclohexyl-6-(trifluoromethyl)imidazo[1,2-a]pyridin-2-yl)-2-phenylacetamide]
pEC50 ([1]; FLIPR assay, Table 1): > 6.30 | Rat MES activity [2]: ++ (++ 4-6 animals protected)

CC(C)(C)Cc1c(NC(=O)C2CCCC2)nc2ccc(C(F)(F)F)cn12 [Compound 51, N-(3-neopentyl-6-(trifluoromethyl)imidazo[1,2-a]pyridin-2-yl)cyclopentanecarboxamide]
pEC50 ([1]; FLIPR assay, Table 1): > 6.30 | Rat MES activity [2]: ++ (++ 4-6 animals protected)

Cc1ccc2nc(NC(=O)CC(C)C(F)(F)F)c(CC(C)(C)C)n2n1 (stereo not shown) [Compound 68, 4,4,4-trifluoro-3-methyl-N-(6-methyl-3-neopentylimidazo[1,2-b]pyridazin-2-yl)butanamide]
pEC50 ([1]; FLIPR assay, Table 1): > 6.30 | Rat MES activity [2]: +++ (+++ 7-8 animals protected)

C[C@H](CC(=O)Nc1nc2ccc(C(F)(F)F)cn2c1C1CC1)C(F)(F)F [Compound 89, (R)—N-(3-cyclopropyl-6-(trifluoromethyl)imidazo[1,2-a]pyridin-2-yl)-4,4,4-trifluoro-3-methylbutanamide]
pEC50 ([1]; FLIPR assay, Table 1): 5.52 to 6.30 | ED50 [2]: 5.8 mg/kg | Rat MES activity [2]: +++ (+++ 7-8 animals protected)

CC(C)(C)CC(=O)Nc1nc2ccc(F)cn2c1-c1ccc(C(F)(F)F)cc1 [Compound 128, N-(6-fluoro-3-(4-(trifluoromethyl)phenyl)imidazo[1,2-a]pyridin-2-yl)-3,3-dimethylbutanamide]
pEC50 ([1]; FLIPR assay, Table 2): > 6.30 | Rat MES activity [2]: +++ (+++ 7-8 animals protected)

CC1(CC(=O)Nc2nc3ccc(F)cn3c2-c2ccc(C(F)(F)F)cc2)CCCC1 [Compound 180, N-(6-fluoro-3-(4-(trifluoromethyl)phenyl)imidazo[1,2-a]pyridin-2-yl)-2-(1-methylcyclopentyl)acetamide]
pEC50 ([1]; FLIPR assay, Table 2): > 6.30 | Rat MES activity [2]: ++ (++ 4-6 animals protected)

CC(C)(C)CC(=O)Nc1nc2ccc(F)cn2c1-c1cc(F)cc(C(F)(F)F)c1 [Compound 198, N-(6-fluoro-3-(3-fluoro-5-(trifluoromethyl)phenyl)imidazo[1,2-a]pyridin-2-yl)-3,3-dimethylbutanamide]
pEC50 ([1]; FLIPR assay, Table 2): > 6.30 | Rat MES activity [2]: +++ (+++ 7-8 animals protected)

CC(C)(C)CC(=O)Nc1nc2ccccn2c1-c1ccc(OC(F)(F)F)cc1 [Compound 225, 3,3-dimethyl-N-(3-(4-(trifluoromethoxy)phenyl)imidazo[1,2-a]pyridin-2-yl)butanamide]
pEC50 ([1]; FLIPR assay, Table 2): > 6.30 | Rat MES activity [2]: ++ (++ 4-6 animals protected)

CC(C)(C)CC(=O)Nc1nc2ccc(Cl)nn2c1-c1ccc(C(F)(F)F)cc1 [Compound 271, N-(6-chloro-3-(4-(trifluoromethyl)phenyl)imidazo[1,2-b]pyridazin-2-yl)-3,3-dimethylbutanamide]
pEC50 ([1]; FLIPR assay, Table 2): > 6.30 | Rat MES activity [2]: ++ (++ 4-6 animals protected)

Cc1ccc2nc(NC(=O)CC(C)(C)C)c(-c3cccc(C(F)(F)F)c3)n2n1 [Compound 308, 3,3-dimethyl-N-(6-methyl-3-(3-(trifluoromethyl)phenyl)imidazo[1,2-b]pyridazin-2-yl)butan amide]
pEC50 ([1]; FLIPR assay, Table 2): > 6.30 | ED50 [2]: 1.6 mg/kg | Rat MES activity [2]: +++ (+++ 7-8 animals protected)

Cc1ccc2nc(NC(=O)CC(C)C(F)(F)F)c(-c3cccc(C(F)(F)F)c3)n2n1 (stereo not shown) [Compound 316, 4,4,4-trifluoro-3-methyl-N-(6-methyl-3-(3-(trifluoromethyl)phenyl)imidazo[1,2-b]pyridazin-2-yl)butanamide]
pEC50 ([1]; FLIPR assay, Table 2): > 6.30 | Rat MES activity [2]: ++ (++ 4-6 animals protected)

CC(C)(C)CC(=O)Nc1nc2ccc(F)cn2c1-c1ccc(C(F)(F)F)cn1 [Compound 353, N-(6-fluoro-3-(5-(trifluoromethyl)pyridin-2-yl)imidazo[1,2-a]pyridin-2-yl)-3,3-dimethylbutanamide]
pEC50 ([1]; FLIPR assay (Table 3)): > 6.30 | Rat MES activity [2]: +++ (+++ 7-8 animals protected)

CC(C)(C)CC(=O)Nc1nc2ccc(F)cn2c1-c1nc2ccccc2s1 [Compound 360, N-(3-(benzo[d]thiazol-2-yl)-6-fluoroimidazo[1,2-a]pyridin-2-yl)-3,3-dimethylbutanamide]
pEC50 ([1]; FLIPR assay (Table 3)): > 6.30 | Rat MES activity [2]: + (+ 2-3 animals protected)

CC(C)(C)CC(=O)Nc1nc2ccc(F)cn2c1-c1ccc(Cl)cn1 [Compound 363, N-(3-(5-chloropyridin-2-yl)-6-fluoroimidazo[1,2-a]pyridin-2-yl)-3,3-dimethylbutanamide]
pEC50 ([1]; FLIPR assay (Table 3)): > 6.30 | Rat MES activity [2]: ++ (++ 4-6 animals protected)

CC(C)(C)CC(=O)Nc1nc2ccc(F)cn2c1-c1nccs1 [Compound 371, N-(6-fluoro-3-(thiazol-2-yl)imidazo[1,2-a]pyridin-2-yl)-3,3-dimethyl butanamide]
pEC50 ([1]; FLIPR assay (Table 3)): 5.52 to 6.30 | ED50 [2]: 3.6 mg/kg | Rat MES activity [2]: ++ (++ 4-6 animals protected)

CC(C)(CC(=O)Nc1nc2ccc(F)cn2c1CC1CCCCC1)C(F)(F)F [Compound 444, N-(3-(cyclohexylmethyl)-6-fluoroimidazo[1,2-a]pyridin-2-yl)-4,4,4-trifluoro-3,3-dimethylbutanamide]
pEC50 ([1]; FLIPR assay (Table 6)): > 6.30

CC1(CC(=O)Nc2nc3ccc(C(F)(F)F)nn3c2C2CC2)CCCC1 [Compound 445, N-(3-cyclopropyl-6-(trifluoromethyl)imidazo[1,2-b]pyridazin-2-yl)-2-(1-methylcyclopentyl)acetamide]
pEC50 ([1]; FLIPR assay (Table 6)): > 6.30

O=C(Nc1nc2ccc(C(F)(F)F)nn2c1C1CCCC1)c1ccc(F)c(F)c1 [Compound 447, N-(3-cyclopentyl-6-(trifluoromethyl)imidazo[1,2-b]pyridazin-2-yl)-3,4,-difluorobenzamide]
pEC50 ([1]; FLIPR assay (Table 6)): 5.52 to 6.30

N-(6-fluoro-3-(3-(trifluoromethoxy)phenyl)imidazo yl)cycloheptanecarboxamide [Compound 293]
pEC50 ([1]; FLIPR assay, Table 2): > 6.30

N-(6-fluoro-3-(3-(trifluoromethyl)phenyl)imidazo yl)cycloheptanecarboxamide [Compound 294]
pEC50 ([1]; FLIPR assay, Table 2): > 6.30

Reference: US9018208B2, “Heterocycles as potassium channel modulators” (Icagen Inc., priority 2007, dated 2015)
